Like-named read-outs stand apart in the source and are kept apart here.
How the values were obtained:
[1] = test system: Gloeocapsa sp. and Oscillatoria sp.; experiment: Algal efficacy on dry paint film (Modified ASTM 5589), pool Gs + Os; format: cell-based
Procedure: (§1) A single biocide or blend of biocides was post added into white acrylic latex paint free of biocides to give a maximum total active ingredient/s concentration tested. This paint was then diluted with a biocide free acrylic latex paint to give targeted concentrations for the testing. Depending on the type of biocide blends tested, the total biocides concentrations varies from 400 to 3300 ppm. After biocides addition or dilution, each sample was hand mixed for at least a minute until uniformity was achieved. Each of the paint samples as well as a control sample (containing no biocide) were used to prepare films on black plastic-vinyl chloride/acetate copolymer panels (Leneta Company, Mahwah, N.J.) using a 0.0762 mm (3 mil) bird bar applicator. The panels were thoroughly dried for at least 2 days avoiding direct exposure to sunlight. Square discs (0.5 inch^2; 1.27 cm^2) were cut out from each panel and were used as the substrate for fungal and algal efficacy tests. This sample size allowed for an agar border when the sample disc was placed into the well of the test plate. Each sample was tested in duplicate.
(§2) The appropriate media (BOLD'S 3N for Chlorophytes, BG-11 for Cyanobacteria, and PDA for fungi) were used to support microbial growth. The test plates were maintained at room temp (25° C.-26° C.), in a cycled light-dark environment, for four weeks for algae. Plates for fungal challenge tests were maintained at 30° C. for four weeks. At the end of the incubation period the samples were scored for percent area covered by visible microbial growth.
Algal efficacy was tested as follows (Modified ASTM 5589).
ASTM 5589 is a standard accelerated test method for determining resistance of various coatings (including paints) to algal defacement. To accommodate for high-throughput screening, this method was scaled down from petri plates to 6-well plates. A single coupon was placed with a pair of sterile forceps at the center of the agar plug (on top) with the painted surface facing upwards. Algal inoculums were prepared by mixing equal concentrations (approximately 1×10^6 cfu/ml) and equal volumes (depending on number of samples to be inoculated) of like growing organisms.
In this synergy study, three pool of mixed algae were prepared as the test inoculum, Gloeocapsa sp. and Oscillatoria sp. a mix of cyanobacteria grown on BG-11 media; Chlorella sp., Chlorella kessleri, and Nostoc commune are unicellular chlorphytes that were mixed and grown on Bold media; Trentepohlia aurea, Tretepohlia odorata, and Calotrix parientina are filamentous algae that were mixed and grown on Bold media.
Each well that contained a tested coupon was inoculated with 400 μl of organism mixture (approximately 1×10^6 cfu/ml) making sure that the whole surface (paint film as well as the agar surrounding it) was evenly covered. The plates were incubated at room temp (25° C.-26° C.) with cyclic exposure to light (OTT-Lite model # OTL4012P, 40 Watt, 26 KLumen) and dark phases, for a period of four weeks. The total area covered was evaluated at the end of each week according to percent area covered in 5% increments.
(§3) The SI is calculated based on F. C. Kull et.
(§4) SI value of <1 in the formula indicates a synergism of the blended biocides exists.
(§5) NE=no end point at the concentration tested that will meet the percent inhibition criteria set in each SI calculation.

[2] = test system: Aspergillus niger mixed with Penicillium funiculosum; experiment: Fungal efficacy on dry paint film (Modified ASTM 5590), pool An + Pf; format: cell-based; settings: for % Inhibition, An + Pf: dry film, four weeks
Procedure: as §1, §2
(§6) Fungal efficacy was tested as follows (Modified ASTM 5590).
(§7) ASTM 5590 is a standard accelerated test method for determining resistance of various coatings (including paints) to fungal defacement. To accommodate for high-throughput screening, this method was scaled down from petri plates to 6-well plates. To set up the test, an agar plug was placed at the bottom of each well of the sterile 6-well plate. A single coupon was placed with a pair of sterile forceps at the center of the agar plug (on top) with the painted surface facing upwards. Fungal inoculums were prepared by mixing equal concentrations (approximately 1×10^6 cfu/ml) and equal volumes (depending on number of samples to be tested) of like growing organisms. For this synergy study, three pools of mixed fungi were prepared as the test inoculum. Cladosporium herbarum was mixed with Trichoderma viride, Aspergillus niger was mixed with Penicillium funiculosum and Alternaria alternata was mixed with Aureobasidium pullulans. Each well was inoculated with 400 microliter of organism mixture (approximately 1×10^6 cfu/ml) making sure that the whole surface (paint film as well as the agar surrounding it) was evenly covered. The plates were incubated at 30° C. in presence of moisture, for a period of four weeks. The total percent area covered was evaluated and recorded at the end of each week and recorded in increments of 5%.
as §3, §4, §5

[3] = test system: Cladosporium herbarum mixed with Trichoderma viride; experiment: Fungal efficacy on dry paint film (Modified ASTM 5590), pool TV + Ch; format: cell-based
Procedure: as §1, §2, §6
ASTM 5590 is a standard accelerated test method for determining resistance of various coatings (including paints) to fungal defacement. To accommodate for high-throughput screening, this method was scaled down from petri plates to 6-well plates. […] The total percent area covered was evaluated and recorded at the end of each week and recorded in increments of 5%.
(§8) The SI is calculated based on F. C. […]

[4] = test system: Alternaria alternata mixed with Aureobasidium pullulans; experiment: Fungal efficacy on dry paint film (Modified ASTM 5590), pool Aa + Ap; format: cell-based
Procedure: as §1, §2, §6
as §7, with “Each well was inoculated with 400 microliter of organism mixture (approximately 1×10^6 cfu/ml) making sure that the whole surface (paint film as well as the agar surrounding it) was evenly covered. The plates were incubated at 30° C. in presence of moisture, for a period of four weeks.” left out
as §8

[5] = test system: green algae (Selenastrum capricornutum); settings: cited from earlier work
[6] = Total conc 1500 ppm (synergy table)
[7] = Total conc 750 ppm (synergy table)
[8] = Conc. 750 ppm in paint, dry film, four weeks
[9] = Conc. 1500 ppm in paint, dry film, four weeks
[10] = Conc. 2500 ppm in paint, dry film, four weeks
[11] = Total conc 2500 ppm (synergy table)

Compound | % Inhibition, Gs + Os [1, 6] | % inhibition, AnPf [2, 7] | % Inhibition, TV + Ch [3, 6] | % inhibition, Aa + Ap [4, 7] | EbC50 (median effective concentration for biomass) ([5]; 72 hr) | ErC50 (median effective concentration for growth rate) ([5]; 72 hr) | EbC50 (median effective concentration for biomass) ([5]; 7 day) | % Inhibition, Gs + Os [1, 8] | % Inhibition, Gs + Os [1, 9] | % Inhibition, Gs + Os [1, 10] | % Inhibition, An + Pf ([2]; Conc. 750 ppm in paint) | % Inhibition, An + Pf ([2]; Conc. 1500 ppm in paint) | % Inhibition, An + Pf ([2]; Conc. 2500 ppm in paint) | % inhibition, AnPf [2, 11] | % Inhibition, TV + Ch [3, 8] | % Inhibition, TV + Ch [3, 10] | % inhibition, Aa + Ap [4, 9] | % inhibition, Aa + Ap [4, 10] | % inhibition, Aa + Ap [4, 11]
CCCCNC(=O)OCC#CI [IPBC, 3-iodo-2-propynyl-butylcarbamate, reference compound] | 82.5% | 65% | 75% | 90% |  |  |  |  |  |  |  |  |  |  |  |  |  |  | 
O=C(O)CNCP(=O)(O)O [Glyphosate, N-(phosphonomethyl)glycine] |  |  |  |  | 485 mg/L | 460 mg/L | 13.8 mg/L |  |  |  |  |  |  |  |  |  |  |  | 
Zinc Glyphosate | 72.5% |  |  |  |  |  |  | 15% | 72.5% | 90% | 20% | 27.5% | 30% | 30% | 50% | 90% | 47.5% | 70% | 70%
